{"source": "patent EP4545547B1", "about": "“INSECT NEUROPEPTIDES” (Solasta Bio Limited, priority 2023, dated 2025)", "key": {"[1]": {"system": "Plutella xylostella", "test": "Leaf dip assay 1 (based on IRAC susceptibility test method 018, performed by FERA)", "format": "in vivo", "settings": "unformulated peptide at 2x10^-4 M; Chinese cabbage leaf discs dipped 10 seconds; larvae (2nd/3rd instar); mortality assessed after 120 hours; Figure 4", "description": "The assay was carried out based on IRAC susceptibility test method 018 by a contract research organization, FERA Science Ltd. Test insects Larvae (2nd/3rd instar) were sourced from a laboratory culture of P. xylostella. The culture has been maintained in a controlled environment (CE) room with conditions of 25 °C and 16:8 lighting regime on Chinese cabbage plants. Chinese cabbage leaves were used in the bioassays. A CE room set at 25 °C and 60% r.h. with a 16 hour light: 8 hours dark lighting regime, was used. Leaf discs (approximately 35mm in diameter) were cut from fully expanded Chinese cabbage leaves. Each leaf disc was dipped in a separate peptide solution for 10 seconds with gentle agitation and placed on a damp filter paper (underside surface uppermost). There were ten replicates for each treatment and control, with five leaf discs per replicate. The treated discs were then put onto damp filter paper in the base of a Petri dishes (90 mm in diameter, 15 mm high) (underside surface uppermost). Five larvae were then transferred onto the treated leaf discs. The dishes were placed in the CE room and mortality was assessed after 120 hours. Leaf dip assays were performed with SB-P-81, and compared to a negative control vehicle and a current commercial insecticide Gazelle SG (shown as the active Acetamiprid). […]"}, "[2]": {"system": "Plutella xylostella", "test": "Leaf dip assay 2 (based on IRAC susceptibility test method 019)", "format": "in vivo", "settings": "unformulated peptide at 1x10^-4 M; leaf disc on 1% agar; after 96 hours; Figure 6", "description": "The assay was carried out based on IRAC susceptibility test method 019 (https://irac-online.org/methods/aphids-adultnymphs/). Fill a small 4 cm wide 3 cm high dish with a 1% agar treatment solution of the active chemical or control (ensuring 1 cm gap between the agar and the lid) and leave to set. Dip a 2.5 cm leaf disc into 3 ml of treatment solution allowing the treatment to coat the leaf. Leave the disc to dry for 1 hour and place onto the set agar. Place insects (Plutella xylostella) onto each of the leaf discs. Each unit is sealed with a close-fitting, ventilated lid. Place the agar dishes in a small plastic tray lined with moist tissue paper and ensure the water trays in the bottom of the incubator are filled with clean water and place within the incubator. An assessment of mortality is made at 72, 96 and 120 hours. Leaf dip assays were performed with SB-P-81, and compared to a negative control vehicle and a current commercial insecticide Chlorantraniliprole. The activity of SB-P-81 is shown in Figure 6; SB-P-81 has good activity whilst being eco-friendly and targeted to specific pests unlike broad spectrum chemical insecticides such as Chlorantraniliprole."}}, "note": "Where a SMILES comes first, the peptide text is derived from it."}
{"smiles": "CSCC[C@H](NC(=O)[C@H](CO)NC(=O)CNC(=O)CN)C(=O)N[C@H](C(=O)N[C@@H](Cc1ccccc1)C(=O)N[C@@H](CO)C(=O)N1CCC[C@H]1C(=O)N[C@@H](CCCNC(=N)N)C(=O)N[C@@H](CC(C)C)C(N)=O)[C@@H](C)O", "note": "[SB-P-81, [Hy]-GGSMTFSPRL-[NH2]] (H-GGSMTFSPRL-NH2)", "values": [{"measurement": "activity against Plutella xylostella (mortality)", "setting": "[1]", "result": "good activity"}, {"measurement": "activity against Plutella xylostella (mortality)", "setting": "[2]", "result": "good activity"}]}
